Results on twelve molecules are retold here after ChEMBL document CHEMBL5465560, “Selectivity Literature for EUbOPEN Chemogenomic Library” (2024).

Bounds are passed on as bounds.

In assay [1] the target is Serine/threonine-protein kinase 16 (Homo sapiens, UniProt O75716). The assay can be described thus: Selectivity interaction (LanthaScreen Eu Kinase Binding Assay) EUB0001632a STK16. Conditions: at 10 µM. (In general: TR-FRET usually uses a lanthanide donor and a delayed reading to cut background.)
Assay [2] addresses Proto-oncogene tyrosine-protein kinase ROS (Homo sapiens) (UniProt P08922). The assay can be described thus: Selectivity interaction (Kinase panel (Z-LYTE Assay)) EUB0001632a ROS1. Conditions: at 10 µM.
In assay [3] the target is Tyrosine-protein kinase CSK (Homo sapiens) (UniProt P41240). The assay can be described thus: Selectivity interaction (KinomeScan (DiscoverX)) EUB0000666a CSK. Conditions: at 10 µM.
The target of assay [4] is Histone-lysine N-methyltransferase ASH1L (Homo sapiens) (UniProt Q9NR48). Conditions: at 1 µM.
For assay [5], the target named is 1-phosphatidylinositol 3-phosphate 5-kinase (Homo sapiens) (UniProt Q9Y2I7). The assay can be described thus: Selectivity interaction (KinomeScan (DiscoverX)) EUB0000229b PIKFYVE. Conditions: at 10 µM.
For assay [6], the target named is Cyclin-dependent kinase 2 (Homo sapiens, UniProt P24941). The assay can be described thus: Selectivity interaction (KinomeScan (DiscoverX)) EUB0001619a CDK2. As to conditions: at 1 µM.
Assay [7] deals with Serine/threonine-protein kinase PAK 4 (Homo sapiens, UniProt O96013). Conditions: at 10 µM.
In assay [8] the target is T1, Serine/threonine-protein kinase RIO1 (Homo sapiens) (UniProt Q9BRS2).
T1 sequence (whole entry): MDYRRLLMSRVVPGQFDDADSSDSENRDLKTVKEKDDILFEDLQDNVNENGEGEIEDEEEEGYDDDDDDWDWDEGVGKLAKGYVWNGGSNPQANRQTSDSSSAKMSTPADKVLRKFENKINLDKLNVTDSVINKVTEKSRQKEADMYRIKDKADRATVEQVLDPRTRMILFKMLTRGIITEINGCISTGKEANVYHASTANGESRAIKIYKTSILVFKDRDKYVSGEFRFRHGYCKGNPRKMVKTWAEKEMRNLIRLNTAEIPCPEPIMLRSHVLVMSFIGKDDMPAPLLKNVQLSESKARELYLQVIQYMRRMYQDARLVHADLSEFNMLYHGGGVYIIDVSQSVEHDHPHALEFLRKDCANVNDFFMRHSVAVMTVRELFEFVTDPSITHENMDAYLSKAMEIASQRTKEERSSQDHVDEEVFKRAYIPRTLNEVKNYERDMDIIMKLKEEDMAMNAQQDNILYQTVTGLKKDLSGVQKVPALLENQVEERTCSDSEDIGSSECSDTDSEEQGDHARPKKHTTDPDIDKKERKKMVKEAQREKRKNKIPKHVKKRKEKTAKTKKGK
As to conditions: at 10 µM.

For assay [9], the target named is Tyrosine-protein kinase SYK (Homo sapiens, UniProt P43405). The assay can be described thus: Selectivity interaction (KinomeScan (DiscoverX)) EUB0001049a SYK. As to conditions: at 1 µM.
In assay [10] the target is Tyrosine-protein kinase Fer (Homo sapiens) (UniProt P16591). The assay can be described thus: Selectivity interaction (KinomeScan (DiscoverX)) EUB0000695a FER. As to conditions: at 100 nM.
Assay [11] deals with Cyclin-Y/Cyclin-dependent kinase 16 (Homo sapiens) (UniProt Q00536+Q8ND76). The assay can be described thus: Selectivity interaction (ProQinase) EUB0000171b CDK16. It is filed as protein-complex assay.
The target of assay [12] is Bromodomain-containing protein 3 (Homo sapiens) (UniProt Q15059). The assay can be described thus: Selectivity interaction (Bromodomain panel (DSF asssay)) EUB0000270b BRD3.
The target of assay [13] is T2, Peripheral plasma membrane protein CASK (Homo sapiens) (UniProt O14936).
T2 sequence (whole entry): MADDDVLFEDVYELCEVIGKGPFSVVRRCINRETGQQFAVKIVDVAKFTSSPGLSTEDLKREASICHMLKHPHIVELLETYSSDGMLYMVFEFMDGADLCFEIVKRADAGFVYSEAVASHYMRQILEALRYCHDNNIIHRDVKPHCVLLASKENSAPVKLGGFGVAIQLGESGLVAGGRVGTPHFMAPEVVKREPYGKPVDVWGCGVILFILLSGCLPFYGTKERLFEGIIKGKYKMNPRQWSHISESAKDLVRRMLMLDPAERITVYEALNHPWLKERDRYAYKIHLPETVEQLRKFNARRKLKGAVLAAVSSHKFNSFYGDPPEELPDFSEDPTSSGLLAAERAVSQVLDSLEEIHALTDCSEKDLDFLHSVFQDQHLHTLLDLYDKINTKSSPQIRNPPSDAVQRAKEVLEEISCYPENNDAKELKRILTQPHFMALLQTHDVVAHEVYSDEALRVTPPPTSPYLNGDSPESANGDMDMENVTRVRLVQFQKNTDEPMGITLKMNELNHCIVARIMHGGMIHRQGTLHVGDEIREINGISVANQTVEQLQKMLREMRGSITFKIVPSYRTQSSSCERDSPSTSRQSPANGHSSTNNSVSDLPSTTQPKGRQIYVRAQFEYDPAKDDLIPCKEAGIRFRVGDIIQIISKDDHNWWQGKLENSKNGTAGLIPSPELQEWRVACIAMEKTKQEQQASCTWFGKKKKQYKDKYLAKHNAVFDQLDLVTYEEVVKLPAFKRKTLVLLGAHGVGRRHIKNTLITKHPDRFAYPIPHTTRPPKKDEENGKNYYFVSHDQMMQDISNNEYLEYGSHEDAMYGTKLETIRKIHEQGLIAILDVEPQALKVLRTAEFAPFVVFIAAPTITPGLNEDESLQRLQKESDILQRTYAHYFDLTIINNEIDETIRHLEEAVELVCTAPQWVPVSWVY
The assay can be described thus: Selectivity interaction (KinomeScan (DiscoverX)) EUB0000045b CASK.

Assay [14] concerns the target STE20-like serine/threonine-protein kinase (Homo sapiens, UniProt Q9H2G2). The assay can be described thus: Selectivity interaction (KinomeScan (DiscoverX)) EUB0000045b SLK.
For assay [15], the target named is Hepatocyte growth factor receptor (Homo sapiens, UniProt P08581). The assay can be described thus: (§1) Selectivity interaction (KinomeScan (DiscoverX)) EUB0000618a MET. Conditions: at 10 µM.
The subject of assay [16] is Hepatocyte growth factor receptor (Homo sapiens), P08581 [M1250T]. The assay is described as §1. Conditions: at 10 µM.
Assay [17] has as its system Hepatocyte growth factor receptor (Homo sapiens), P08581 [Y1235D]. The assay is described as §1. As to conditions: at 10 µM.

Chain of STE20-like serine/threonine-protein kinase (Q9H2G2 whole entry, looked up): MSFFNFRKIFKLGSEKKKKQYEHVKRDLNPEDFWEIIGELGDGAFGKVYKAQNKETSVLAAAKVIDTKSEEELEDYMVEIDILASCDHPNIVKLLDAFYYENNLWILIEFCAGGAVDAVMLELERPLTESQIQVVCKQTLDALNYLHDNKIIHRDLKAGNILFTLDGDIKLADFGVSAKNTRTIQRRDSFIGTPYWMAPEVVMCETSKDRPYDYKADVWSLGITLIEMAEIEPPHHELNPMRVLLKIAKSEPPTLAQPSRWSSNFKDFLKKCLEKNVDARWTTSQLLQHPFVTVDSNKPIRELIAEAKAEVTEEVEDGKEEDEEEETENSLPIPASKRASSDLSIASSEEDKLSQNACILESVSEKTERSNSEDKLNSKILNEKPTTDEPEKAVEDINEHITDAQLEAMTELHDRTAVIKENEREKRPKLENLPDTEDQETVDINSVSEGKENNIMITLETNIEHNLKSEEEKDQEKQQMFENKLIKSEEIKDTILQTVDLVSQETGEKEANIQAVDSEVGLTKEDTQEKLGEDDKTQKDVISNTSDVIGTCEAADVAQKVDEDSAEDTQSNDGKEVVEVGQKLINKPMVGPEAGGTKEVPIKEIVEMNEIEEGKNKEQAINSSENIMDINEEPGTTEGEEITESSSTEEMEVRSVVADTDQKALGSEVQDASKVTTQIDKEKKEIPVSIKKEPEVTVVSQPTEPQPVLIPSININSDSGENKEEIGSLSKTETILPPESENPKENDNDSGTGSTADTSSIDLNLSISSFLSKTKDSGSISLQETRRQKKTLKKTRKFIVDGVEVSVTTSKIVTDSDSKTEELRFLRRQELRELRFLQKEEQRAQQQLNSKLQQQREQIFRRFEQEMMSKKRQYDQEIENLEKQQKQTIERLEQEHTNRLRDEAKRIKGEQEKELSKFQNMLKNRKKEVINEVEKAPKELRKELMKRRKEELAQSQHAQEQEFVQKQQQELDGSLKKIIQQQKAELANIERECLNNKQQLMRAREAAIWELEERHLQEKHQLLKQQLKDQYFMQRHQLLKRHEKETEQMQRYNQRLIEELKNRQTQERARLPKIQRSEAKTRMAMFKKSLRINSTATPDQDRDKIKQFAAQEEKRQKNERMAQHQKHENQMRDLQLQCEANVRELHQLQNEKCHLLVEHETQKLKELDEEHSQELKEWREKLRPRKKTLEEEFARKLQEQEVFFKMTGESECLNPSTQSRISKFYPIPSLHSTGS
Chain of Bromodomain-containing protein 3 (Homo sapiens) (Q15059 2-726 limits assumed): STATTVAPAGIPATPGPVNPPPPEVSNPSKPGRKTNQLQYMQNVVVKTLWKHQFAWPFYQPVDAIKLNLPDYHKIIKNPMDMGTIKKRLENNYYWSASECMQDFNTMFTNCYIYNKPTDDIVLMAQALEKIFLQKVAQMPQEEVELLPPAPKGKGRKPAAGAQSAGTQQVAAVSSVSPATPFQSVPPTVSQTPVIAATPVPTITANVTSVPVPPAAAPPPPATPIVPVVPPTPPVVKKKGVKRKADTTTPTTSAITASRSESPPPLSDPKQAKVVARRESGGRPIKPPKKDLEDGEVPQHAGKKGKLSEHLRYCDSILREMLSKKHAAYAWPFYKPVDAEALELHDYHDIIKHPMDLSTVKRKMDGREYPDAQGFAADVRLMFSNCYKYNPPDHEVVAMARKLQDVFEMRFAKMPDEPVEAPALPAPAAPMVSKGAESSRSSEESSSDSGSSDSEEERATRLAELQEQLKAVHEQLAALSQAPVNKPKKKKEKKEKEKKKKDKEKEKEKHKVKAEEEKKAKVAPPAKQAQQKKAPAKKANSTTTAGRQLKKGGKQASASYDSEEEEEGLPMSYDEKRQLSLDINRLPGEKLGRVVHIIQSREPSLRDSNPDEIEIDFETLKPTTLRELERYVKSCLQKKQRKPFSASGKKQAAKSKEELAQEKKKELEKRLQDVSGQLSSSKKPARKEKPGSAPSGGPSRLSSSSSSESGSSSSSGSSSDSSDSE
Chain of 1-phosphatidylinositol 3-phosphate 5-kinase (Homo sapiens) (Q9Y2I7 whole entry): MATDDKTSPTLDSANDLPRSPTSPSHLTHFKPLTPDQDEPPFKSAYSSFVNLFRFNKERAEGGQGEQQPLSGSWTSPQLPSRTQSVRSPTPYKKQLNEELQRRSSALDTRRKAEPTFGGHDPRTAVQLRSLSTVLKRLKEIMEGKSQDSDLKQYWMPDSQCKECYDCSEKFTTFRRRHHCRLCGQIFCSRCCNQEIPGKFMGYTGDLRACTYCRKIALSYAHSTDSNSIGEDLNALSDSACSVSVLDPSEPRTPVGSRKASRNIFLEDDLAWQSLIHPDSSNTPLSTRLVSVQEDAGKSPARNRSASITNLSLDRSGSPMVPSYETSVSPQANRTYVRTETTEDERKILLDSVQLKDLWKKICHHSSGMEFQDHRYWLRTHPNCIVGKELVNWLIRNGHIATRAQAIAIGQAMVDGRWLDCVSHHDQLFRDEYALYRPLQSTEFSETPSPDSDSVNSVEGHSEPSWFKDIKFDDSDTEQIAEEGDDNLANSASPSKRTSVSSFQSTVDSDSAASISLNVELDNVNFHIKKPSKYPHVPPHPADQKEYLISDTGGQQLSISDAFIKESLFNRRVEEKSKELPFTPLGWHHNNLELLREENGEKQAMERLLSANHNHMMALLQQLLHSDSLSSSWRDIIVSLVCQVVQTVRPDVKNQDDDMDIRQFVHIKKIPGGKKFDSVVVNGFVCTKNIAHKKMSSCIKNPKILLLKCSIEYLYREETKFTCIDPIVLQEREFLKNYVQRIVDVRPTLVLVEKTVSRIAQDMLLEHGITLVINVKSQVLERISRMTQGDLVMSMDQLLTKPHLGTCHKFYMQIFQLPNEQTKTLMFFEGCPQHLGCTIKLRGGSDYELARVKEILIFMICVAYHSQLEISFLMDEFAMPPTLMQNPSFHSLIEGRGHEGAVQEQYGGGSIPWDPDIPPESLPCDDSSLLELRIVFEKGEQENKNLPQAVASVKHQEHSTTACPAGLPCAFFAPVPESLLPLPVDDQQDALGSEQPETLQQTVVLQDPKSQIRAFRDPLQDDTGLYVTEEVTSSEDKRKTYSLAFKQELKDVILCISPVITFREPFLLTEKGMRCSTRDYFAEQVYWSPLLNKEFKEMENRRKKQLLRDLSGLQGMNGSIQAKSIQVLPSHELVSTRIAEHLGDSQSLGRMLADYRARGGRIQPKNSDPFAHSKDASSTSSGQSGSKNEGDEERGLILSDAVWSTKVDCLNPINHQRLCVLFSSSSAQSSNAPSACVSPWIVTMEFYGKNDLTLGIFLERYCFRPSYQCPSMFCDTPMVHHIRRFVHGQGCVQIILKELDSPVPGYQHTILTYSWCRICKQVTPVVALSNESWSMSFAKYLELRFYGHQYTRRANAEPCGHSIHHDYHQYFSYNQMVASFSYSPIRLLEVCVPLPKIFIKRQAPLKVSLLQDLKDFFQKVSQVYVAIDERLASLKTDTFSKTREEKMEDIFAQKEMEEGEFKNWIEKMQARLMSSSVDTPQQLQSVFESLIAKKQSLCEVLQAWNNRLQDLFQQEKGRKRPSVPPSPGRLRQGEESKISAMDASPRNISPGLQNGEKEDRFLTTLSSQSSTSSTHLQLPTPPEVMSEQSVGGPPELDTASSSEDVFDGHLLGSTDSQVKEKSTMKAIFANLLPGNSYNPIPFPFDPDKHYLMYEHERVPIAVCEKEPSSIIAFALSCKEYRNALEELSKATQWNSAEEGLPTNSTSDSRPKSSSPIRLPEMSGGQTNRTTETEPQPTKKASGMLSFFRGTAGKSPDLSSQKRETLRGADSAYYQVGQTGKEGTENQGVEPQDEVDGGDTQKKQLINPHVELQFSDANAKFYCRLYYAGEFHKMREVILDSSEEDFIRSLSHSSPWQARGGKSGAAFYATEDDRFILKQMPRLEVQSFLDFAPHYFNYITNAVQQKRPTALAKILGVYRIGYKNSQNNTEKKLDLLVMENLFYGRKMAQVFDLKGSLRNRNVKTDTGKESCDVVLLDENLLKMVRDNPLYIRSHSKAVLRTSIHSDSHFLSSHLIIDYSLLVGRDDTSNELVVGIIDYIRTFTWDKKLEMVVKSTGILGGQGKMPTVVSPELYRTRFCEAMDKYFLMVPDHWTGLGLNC
Chain of Tyrosine-protein kinase Fer (Homo sapiens) (P16591 whole entry, looked up): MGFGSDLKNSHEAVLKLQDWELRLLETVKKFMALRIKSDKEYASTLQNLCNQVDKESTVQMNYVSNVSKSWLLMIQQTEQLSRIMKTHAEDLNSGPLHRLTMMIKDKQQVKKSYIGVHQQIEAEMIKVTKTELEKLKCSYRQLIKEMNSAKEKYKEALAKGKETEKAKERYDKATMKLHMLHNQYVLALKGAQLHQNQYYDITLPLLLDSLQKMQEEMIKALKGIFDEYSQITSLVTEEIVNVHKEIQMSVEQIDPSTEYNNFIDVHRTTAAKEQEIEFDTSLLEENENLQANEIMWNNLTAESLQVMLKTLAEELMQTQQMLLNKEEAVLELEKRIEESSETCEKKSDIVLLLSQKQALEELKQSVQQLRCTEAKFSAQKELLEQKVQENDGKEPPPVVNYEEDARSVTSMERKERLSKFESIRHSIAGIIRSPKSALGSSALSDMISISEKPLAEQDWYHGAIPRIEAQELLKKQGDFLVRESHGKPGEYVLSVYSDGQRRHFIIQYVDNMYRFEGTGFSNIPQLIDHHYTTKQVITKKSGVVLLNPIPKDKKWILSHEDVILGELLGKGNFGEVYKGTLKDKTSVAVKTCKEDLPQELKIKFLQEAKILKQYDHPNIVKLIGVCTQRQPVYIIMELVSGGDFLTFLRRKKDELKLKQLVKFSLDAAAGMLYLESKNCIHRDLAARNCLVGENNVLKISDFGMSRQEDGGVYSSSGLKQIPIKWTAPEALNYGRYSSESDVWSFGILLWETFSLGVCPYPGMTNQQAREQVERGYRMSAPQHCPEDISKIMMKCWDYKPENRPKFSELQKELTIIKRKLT

Regarding `Cn1cc(-n2cnc3c(NCc4nc5cc(Cl)c(Cl)cc5[nH]4)nc(N4CCOCC4)nc32)cn1`, the % of inhibition in [1] was -24.9%. In [2], this molecule had a % of control of 0.847%. `O=C(NOC[C@H](O)CO)c1ccc(F)c(F)c1Nc1ccc(I)cc1F` gave a % of control in assay [3] of 100%. For the molecule `CNCCN1CCC(c2cc(CN(C)C(=O)c3cccc(Oc4ccccc4)c3)ccn2)CC1`, in [4], the % activity is above 90%. `COc1cc(N(C)c2ccnc3ccc(C(F)(F)F)cc23)cc(OC)c1OC` displayed a % binding in assay [5] of 46%.

In [6], `N#Cc1cccc(-c2c[nH]c3ncnc(N4CCOCC4)c23)c1` yielded a % of control of 89%. Consider `CCN(CC)CCCCNc1ncc2cc(-c3cc(OC)cc(OC)c3)c(NC(=O)NC(C)(C)C)nc2n1`, for which the % of control in assay [7] and in [8] was 100% in each case. `COc1cc(Nc2nc(C)cc(-c3cnn4nc(OC)ccc34)n2)cc(C(F)(F)F)c1` returned a % of control in [9] of 100%. Molecule `Cc1cc(F)c(C(=O)Nc2cccc(-c3nncn3C(C)C)n2)cc1-n1cnc(C2CC2)c1` had a % of control in assay [10] of 72%. With `C=CC(=O)Nc1cccc(C(=O)Nc2ccc(Nc3cc(-c4[nH]c(SC)nc4C)ccn3)cc2)c1`, the % of control in assay [11] (at 1 µM) worked out at 88%; in assay [11] (at 5 µM), 87%. `Cc1cc(CN)cc(C)c1-c1ncn(C)c1-c1cncn1C`: in assay [12], the dTM was -1.78 K. In the case of `C=CC(=O)Nc1cc(-n2c(=O)ccc3cnc4ccc(-c5ccc(NS(C)(=O)=O)cc5)cc4c32)ccc1C`, the % of control came out at 61% in [13] (at 1 µM), 100% in assay [13] (at 10 µM), 59% in assay [14] (at 1 µM) and 100% in assay [14] (at 10 µM).

Consider `O[C@H]1CC[C@H](Nc2ncc3nc(Nc4c(F)cc(F)cc4F)n([C@H]4CCOC4)c3n2)CC1`, for which the % of control in [15], in [16] and in assay [17] was 100% each time.
